Key:
M. tuberculosis H37Rv = experiment: Antimycobacterial activity, Luciferase reporter phage assay; assay type: cell-based, Mycobacterium tuberculosis; details: 72 hours
E. faecium = experiment: MIC determination, Macro-broth dilution method (NCCLS); assay type: cell-based, Enterococcus faecium; details: for Minimal Inhibitory Concentration: E. faecium, R-2 (VRE) (Table 5)
Source text: (§1) The in-vitro potency was established by minimum inhibitory concentration (MIC) determinations of the compounds of Formula I(a) and Formula I(b) against bacterial strains, by using the Macro-broth dilution method as per National Committee for Clinical Laboratory Standards (2000) guidelines (Methods for Dilution Antimicrobial Susceptibility Tests for Bacteria that Grow Aerobically—Fifth Edition: Approved Standard M7-A5. NCCLS, Wayne, Pa., USA). Mueller-Hinton broth was used as nutrient medium for the assay, unless stated otherwise. PM181104 (PCT publication no. WO2007119201) was used as known standard in all in-vitro experiments. For preparation of the stock solution the compounds of Formula I(a) and Formula I(b) were dissolved in chloroform (5% of the total required volume) and diluted using methanol (95% of the total required volume).

[1] = Solubility (physical properties)
S. epidermidis = experiment: MIC determination, Macro-broth dilution method (NCCLS); assay type: cell-based, Staphylococcus epidermidis
Source text: as §1

Bacillus cereus (121) = experiment: as above; assay type: cell-based
Source text: as §1

[2] = test system: Bacillus megaterium FH1127 (124); experiment: as above; assay type: cell-based
Source text: as §1

[3] = test system: Bacillus subtilis ATCC 6633 (123); experiment: as above; assay type: cell-based
Source text: as §1

S. aureus = experiment: as above; assay type: cell-based, Staphylococcus aureus
Source text: as §1

[4] = in chloroform, ethyl acetate, methanol
[5] = S. aureus 209P (MSSA) (Table 5)
[6] = S. aureus E710, (MRSA) (Table 5)

C=C(NC(=O)C(=C)NC(=O)c1csc(C2=NC3c4csc(n4)C4NC(=O)c5csc(n5)C(C(C)(O)C(C)O)NC(=O)C5CSC(=N5)/C(=C\C)NC(=O)C(C(C)O)NC(=O)c5csc(n5)C3(CC2)NC(=O)C(C)NC(=O)C(=C)NC(=O)C(C)NC(=O)C(C(C)C)NC2C=Cc3c(C(C)O)cc(nc3C2O)C(=O)OC4C)n1)C(N)=O (stereo not shown) [Compound of Formula I(a)]
% reduction in RLU (M. tuberculosis H37Rv; 0.5 μg/mL): 36.36%
% reduction in RLU (M. tuberculosis H37Rv; 5 μg/mL): 77.17%
% reduction in RLU (M. tuberculosis H37Rv; 10 μg/mL): 83.76%
MIC (E. faecium; E. faecium C1 VRE 26): 0.25 µg/mL
MIC (E. faecium; E. faecium C1 VRE 27): 0.25 µg/mL
MIC (E. faecium; E. faecium C1 VRE 28): 0.125 µg/mL
MIC (E. faecium; E. faecium C1 VRE 31): 0.5 µg/mL
MIC (E. faecium; E. faecium C1 VRE 33): 0.125 µg/mL
MIC (E. faecium; E. faecium C1 VRE 34): 0.25 µg/mL
MIC (E. faecium; E. faecium KEM VRE 1): 0.25 µg/mL
MIC (E. faecium; E. faecium KEM VRE 2): 0.5 µg/mL
MIC (E. faecium; E. faecium KEM VRE 3): 0.25 µg/mL
MIC (E. faecium; E. faecium KEM VRE 4): 0.5 µg/mL
MIC (E. faecium; E. faecium KEM VRE 5): 0.25 µg/mL
MIC (E. faecium; E. faecium R-2 (VRE) (Table 4)): 0.25 µg/mL
Minimal Inhibitory Concentration (E. faecium): 0.125 µg/mL
MIC (E. faecium; Enterococcus faecium, VSE (322)): 0.125 µg/mL
Solubility [1, 4]: Soluble
Solubility ([1]; in water): insoluble
MIC (S. epidermidis; S. epidermidis 823, Teicho^R, 230): 0.25 µg/mL
MIC (S. epidermidis; S. epidermidis 2361 W, 246): 0.25 µg/mL
MIC (S. epidermidis; S. epidermidis 4264 I (1) W, 247): 0.125 µg/mL
MIC (S. epidermidis; S. epidermidis 6098, Erythro^R, 233): >1 µg/mL
MIC (S. epidermidis; S. epidermidis 6729 II W, Erythro^R, 236): 0.125 µg/mL
MIC (S. epidermidis; S. epidermidis Pat 01 IV, 251): 0.25 µg/mL
MIC (Bacillus cereus (121)): 0.031 µg/mL
MIC [2]: 0.125 µg/mL
MIC [3]: 0.031 µg/mL
Minimal Inhibitory Concentration (S. aureus; [5]): 0.064 to 0.125 µg/mL
MIC (S. aureus; S. aureus 209 P, MSSA (Table 4)): 0.063 µg/mL
MIC (S. aureus; S. aureus 503, MRSA, 62): >1 µg/mL
MIC (S. aureus; S. aureus 789, MRSA, 64): >1 µg/mL
MIC (S. aureus; S. aureus ATCC 33591, MRSA): 0.125 µg/mL
MIC (S. aureus; S. aureus C1 MRSA 2): 0.25 µg/mL
MIC (S. aureus; S. aureus C1 MRSA 3): 0.25 µg/mL
MIC (S. aureus; S. aureus C1 MRSA 5): 0.25 µg/mL
MIC (S. aureus; S. aureus C1 MRSA 7): 0.125 µg/mL
MIC (S. aureus; S. aureus C1 MRSA 8): 0.25 µg/mL
MIC (S. aureus; S. aureus C1 MRSA 9): 0.25 µg/mL
MIC (S. aureus; S. aureus C1 MRSA 10): 0.25 µg/mL
MIC (S. aureus; S. aureus C1 MRSA 13): 0.25 µg/mL
MIC (S. aureus; S. aureus C1 MRSA 16): 0.25 µg/mL
MIC (S. aureus; S. aureus C1 MRSA 17): 0.125 µg/mL
MIC (S. aureus; S. aureus C1 MRSA 20): 0.125 µg/mL
MIC (S. aureus; S. aureus C1 MRSA 21): 0.125 µg/mL
MIC (S. aureus; S. aureus C1 MRSA 22): 0.25 µg/mL
MIC (S. aureus; S. aureus C1 MRSA 23): 0.016 µg/mL
MIC (S. aureus; S. aureus C1 MRSA 24): 0.25 µg/mL
MIC (S. aureus; S. aureus C1 MRSA 25): 0.15 µg/mL
Minimal Inhibitory Concentration (S. aureus; [6]): 0.125 µg/mL
MIC (S. aureus; S. aureus E710, MRSA (Table 4)): 0.125 µg/mL
MIC (S. aureus; S. aureus E712, MRSA Erythro^R, 59): 0.25 µg/mL
MIC (S. aureus; S. aureus KEM MRSA 1): 0.25 µg/mL
MIC (S. aureus; S. aureus KEM MRSA 2): 0.25 µg/mL
MIC (S. aureus; S. aureus KEM MRSA 3): 0.25 µg/mL
MIC (S. aureus; S. aureus KEM MRSA 4): 0.125 µg/mL
MIC (S. aureus; S. aureus KEM MRSA 5): 0.125 µg/mL
MIC (S. aureus; S. aureus MRSA 3 lilavati): 0.125 µg/mL
MIC (S. aureus; S. aureus Misk MRSA 35): 0.125 µg/mL
MIC (S. aureus; S. aureus Misk MRSA 37): 0.125 µg/mL
MIC (S. aureus; S. aureus Misk MRSA 38): 0.125 µg/mL
MIC (S. aureus; S. aureus SG 511, MRSA, 63): 1 µg/mL

C=C(NC(=O)c1csc(C2=NC3c4csc(n4)C4NC(=O)c5csc(n5)C(C(C)(O)C(C)O)NC(=O)C5CSC(=N5)/C(=C\C)NC(=O)C(C(C)O)NC(=O)c5csc(n5)C3(CC2)NC(=O)C(C)NC(=O)C(=C)NC(=O)C(C)NC(=O)C(C(C)C)NC2C=Cc3c(C(C)O)cc(nc3C2O)C(=O)OC4C)n1)C(=O)NC(C)C(N)=O (stereo not shown) [Compound of Formula I(b)]
% reduction in RLU (M. tuberculosis H37Rv; 0.5 μg/mL): 28.87%
% reduction in RLU (M. tuberculosis H37Rv; 5 μg/mL): 54.83%
% reduction in RLU (M. tuberculosis H37Rv; 10 μg/mL): 76.73%
Minimal Inhibitory Concentration (E. faecium): 2 µg/mL
Solubility [1, 4]: Soluble
Solubility ([1]; in water): insoluble
Minimal Inhibitory Concentration (S. aureus; [5]): 0.25 to 0.5 µg/mL
Minimal Inhibitory Concentration (S. aureus; [6]): 2 µg/mL
